Earlier results on two compounds are cited in patent US6631329B1, “Use of the crystal structure of Staphylococcus aureus isoleucyl-tRNA synthetase in antibiotic design” (Yale University, priority 1999, dated 2003).

In series [1] the test system is MRSA. The conditions noted are these: topical use.
Series [2] concerns the target MURSA isoleucyl-tRNA synthetase (Staphylococcus aureus, UniProt P41368).
For series [3], the system named is MRSA.
In series [4] the target is T1, isoleucyl-tRNA synthetase (IRS) (Staphylococcus aureus, UniProt P41972).
T1 sequence (P41972 1-917): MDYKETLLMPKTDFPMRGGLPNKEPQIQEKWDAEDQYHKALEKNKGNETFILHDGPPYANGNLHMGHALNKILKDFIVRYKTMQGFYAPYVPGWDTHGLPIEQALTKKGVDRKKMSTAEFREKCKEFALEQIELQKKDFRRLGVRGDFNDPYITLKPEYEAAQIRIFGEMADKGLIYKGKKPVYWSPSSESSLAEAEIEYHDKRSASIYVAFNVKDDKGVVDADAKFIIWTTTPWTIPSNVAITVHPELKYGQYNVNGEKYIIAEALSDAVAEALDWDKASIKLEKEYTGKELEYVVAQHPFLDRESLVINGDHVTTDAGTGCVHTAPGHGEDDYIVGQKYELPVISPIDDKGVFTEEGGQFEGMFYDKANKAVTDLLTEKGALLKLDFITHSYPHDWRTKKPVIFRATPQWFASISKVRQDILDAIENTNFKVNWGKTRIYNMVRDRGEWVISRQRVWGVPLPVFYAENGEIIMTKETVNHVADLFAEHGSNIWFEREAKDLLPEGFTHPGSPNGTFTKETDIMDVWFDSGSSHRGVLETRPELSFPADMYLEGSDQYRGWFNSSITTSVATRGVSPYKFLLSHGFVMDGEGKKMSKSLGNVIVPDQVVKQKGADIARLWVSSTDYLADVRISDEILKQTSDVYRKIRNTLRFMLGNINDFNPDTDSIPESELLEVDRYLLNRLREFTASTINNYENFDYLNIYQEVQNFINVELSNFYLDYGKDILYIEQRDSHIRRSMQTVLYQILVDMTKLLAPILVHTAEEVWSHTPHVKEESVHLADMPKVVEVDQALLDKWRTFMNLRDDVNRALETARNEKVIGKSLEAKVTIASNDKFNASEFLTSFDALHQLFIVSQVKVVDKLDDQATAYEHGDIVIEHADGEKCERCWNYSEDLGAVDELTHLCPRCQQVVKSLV
Conditions: with respect to isoleucine.

The subject of series [5] is Gram-negative bacterial IRS. The conditions noted are these: many Gram-negative bacterial IRS.
Series [6] has as its system MRSA. Conditions: in vivo.
The target in series [7] is T2, human isoleucyl-tRNA synthetase (Homo sapiens, UniProt P41252).
T2 sequence (P41252 1-1262): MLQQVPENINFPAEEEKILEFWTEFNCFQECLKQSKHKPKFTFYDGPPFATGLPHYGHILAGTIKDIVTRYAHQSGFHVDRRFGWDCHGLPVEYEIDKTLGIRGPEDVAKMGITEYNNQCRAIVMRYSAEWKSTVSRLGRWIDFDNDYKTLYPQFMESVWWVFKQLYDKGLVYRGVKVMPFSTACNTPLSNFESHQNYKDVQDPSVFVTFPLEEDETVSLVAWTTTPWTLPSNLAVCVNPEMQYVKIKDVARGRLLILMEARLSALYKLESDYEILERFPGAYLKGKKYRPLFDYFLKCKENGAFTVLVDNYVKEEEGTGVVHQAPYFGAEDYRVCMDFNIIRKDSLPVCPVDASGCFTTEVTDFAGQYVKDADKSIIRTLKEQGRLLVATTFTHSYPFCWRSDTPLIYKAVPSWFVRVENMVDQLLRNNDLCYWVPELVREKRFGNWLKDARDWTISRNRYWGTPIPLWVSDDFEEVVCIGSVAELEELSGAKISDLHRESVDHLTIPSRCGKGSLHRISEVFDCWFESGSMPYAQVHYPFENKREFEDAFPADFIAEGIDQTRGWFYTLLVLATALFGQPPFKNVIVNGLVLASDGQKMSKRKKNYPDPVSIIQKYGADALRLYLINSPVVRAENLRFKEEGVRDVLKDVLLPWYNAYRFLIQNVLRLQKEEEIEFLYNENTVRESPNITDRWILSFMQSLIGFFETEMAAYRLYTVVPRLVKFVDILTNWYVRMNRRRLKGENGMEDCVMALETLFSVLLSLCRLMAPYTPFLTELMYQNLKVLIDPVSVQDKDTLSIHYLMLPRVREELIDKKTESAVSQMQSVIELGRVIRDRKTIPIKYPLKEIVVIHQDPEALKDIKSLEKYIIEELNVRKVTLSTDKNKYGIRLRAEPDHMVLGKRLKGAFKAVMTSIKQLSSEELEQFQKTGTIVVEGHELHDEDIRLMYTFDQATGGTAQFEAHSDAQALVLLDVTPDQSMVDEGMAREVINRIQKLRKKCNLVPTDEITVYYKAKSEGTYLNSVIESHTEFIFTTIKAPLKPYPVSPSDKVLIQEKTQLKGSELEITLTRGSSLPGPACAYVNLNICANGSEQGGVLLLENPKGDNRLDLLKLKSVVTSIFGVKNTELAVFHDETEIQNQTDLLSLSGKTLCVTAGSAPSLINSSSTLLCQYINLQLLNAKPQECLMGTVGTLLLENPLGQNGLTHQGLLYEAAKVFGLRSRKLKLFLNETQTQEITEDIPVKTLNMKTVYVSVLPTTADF

Series [8] relates to Pseudomonic fluoscenes (Psefl) enzyme. Conditions: SA IRS vs Pseudomonic fluoscenes enzyme.

Chain of MURSA isoleucyl-tRNA synthetase (P41368 whole entry): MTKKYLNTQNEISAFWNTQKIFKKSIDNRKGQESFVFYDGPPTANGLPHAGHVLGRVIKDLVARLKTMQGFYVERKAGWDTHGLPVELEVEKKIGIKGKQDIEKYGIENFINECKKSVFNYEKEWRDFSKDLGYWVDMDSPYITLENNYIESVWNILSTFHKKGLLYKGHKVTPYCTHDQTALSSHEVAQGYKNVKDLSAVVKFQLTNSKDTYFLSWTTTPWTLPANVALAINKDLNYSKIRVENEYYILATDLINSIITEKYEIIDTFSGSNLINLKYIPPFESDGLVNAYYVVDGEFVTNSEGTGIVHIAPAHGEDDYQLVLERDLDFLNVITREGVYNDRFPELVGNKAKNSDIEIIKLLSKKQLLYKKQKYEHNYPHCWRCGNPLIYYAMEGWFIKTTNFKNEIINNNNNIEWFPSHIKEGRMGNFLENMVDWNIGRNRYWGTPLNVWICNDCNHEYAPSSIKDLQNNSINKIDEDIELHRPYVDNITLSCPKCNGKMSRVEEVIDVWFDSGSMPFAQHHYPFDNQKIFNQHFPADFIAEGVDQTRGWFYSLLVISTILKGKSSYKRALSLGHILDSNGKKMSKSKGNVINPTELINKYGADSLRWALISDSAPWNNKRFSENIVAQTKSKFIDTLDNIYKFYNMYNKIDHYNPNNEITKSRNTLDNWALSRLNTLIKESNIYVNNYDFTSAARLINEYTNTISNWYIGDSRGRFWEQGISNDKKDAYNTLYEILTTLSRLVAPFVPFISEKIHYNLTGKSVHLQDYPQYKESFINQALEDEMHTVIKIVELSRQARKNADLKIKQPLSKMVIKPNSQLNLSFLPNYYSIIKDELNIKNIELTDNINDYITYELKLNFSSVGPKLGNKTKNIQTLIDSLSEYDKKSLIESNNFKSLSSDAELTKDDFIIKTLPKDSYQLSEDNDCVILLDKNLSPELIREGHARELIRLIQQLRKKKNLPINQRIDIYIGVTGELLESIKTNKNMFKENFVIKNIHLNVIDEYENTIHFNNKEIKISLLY

With `C/C(=C\C(=O)OCCCCCCCCC(=O)O)C[C@@H]1OC[C@H](C[C@@H]2O[C@H]2[C@@H](C)[C@H](C)O)[C@@H](O)[C@H]1O` [Mupirocin, mupirocin], in the series with MRSA [1], the “eradication of nasal carriage of MRSA” value is on record as “very successfully eradicated”. In the series with MRSA [1] (after failure of intervenous vancomycin therapy), the “eradication of MRSA in skin and virginal infections” value was “eradicated”. Further, the “sensitivity of MURSA isoleucyl-tRNA synthetase to the antibiotic” value in [2] is “resistant”. In the series on MRSA [3], the “effectiveness against MRSA” value is “highly effective”. In series [4], the “mode of inhibition of IRS” value is reported as “competitive inhibitor for isoleucine”. Also, the “concentration at which mupirocin inhibits bacterial IRS” value in series [5] is recorded as “nM concentrations”. For the same compound, in the series with MRSA [6], the “effectiveness against bacteremia caused by MRSA” value was “not very effective”. Further, the half-life in vivo entry (metabolic conversion from pseudomonic acid to monic acid) is “short”. Further, in series [7], the “sensitivity of human isoleucyl-tRNA synthetase to the antibiotic” value is given as “resistant”. Further, in [7] (higher than for bacterial IRS), the “concentration for binding the human enzyme relative to bacterial IRS” value is given as 3 to 4 orders of magnitude. Moreover, the “difference in inhibition between SA IRS and Psefl enzyme” value in [8] is reported as 10^6.

In the case of `C/C(=C\C(=O)O)C[C@@H]1OC[C@H](C[C@@H]2O[C@H]2[C@@H](C)[C@H](C)O)[C@@H](O)[C@H]1O` [monic acid], where the note is “in vivo”, the “activity of the metabolite” value was “inactive” and the “clearance in the urine” value is “rapidly cleared”.
